Experimental data reported in US20200352886A1 (priority 2009, published 2020).

How the values were obtained:
[1] = test system: Gottingen Minipigs; details: minipig, in vivo
Experimental: The broad aim of the study was to evaluate the potential dermal toxicity of DMSO when administered topically to four groups of Gottingen Minipigs® for 52 weeks at concentrations of 0, 9%, 45.5% and 90% (w/w) and to evaluate reversibility, progression, or delayed appearance of any observed changes following a 1-month postdose observation period. Two additional groups of Gottingen Minipigs® were dosed topically for 39 weeks at 0% and 90% followed by a 4-month recovery post dose observation period.
Four groups consisting of six animals/sex/group received DMSO at respective dose levels of 0, 9, 45.5, or 90% (w/w) by dermal application three times a day for 364 consecutive days. Following 52 weeks of administration, two animals/sex at 0, 9, 45.5, and 90% dose levels were maintained for a 4-week recovery period. Two additional groups consisting of six animals/sex/group received the control or 90% (w/w) DMSO by dermal application three times a day for 273 consecutive days. Following 39 weeks of administration, two animals/sex at 0 and 90% dose levels were maintained for a 4 month recovery period. […]
Clinical observations were conducted weekly. At the end of the each treatment and recovery period, necropsy examinations were performed, organ weights were recorded, and selected tissues were microscopically examined. […]

[2] = test system: Sprague-Dawley rats; details: rat, in vivo
[3] = test system: symptomatic primary osteoarthritis of the knee; assay: 12-week double-blind, double-dummy randomized controlled trial: efficacy (WOMAC, POHA, PGA); assay type: in vivo, human; details: 12 weeks
Experimental: This randomized, double-blind, double-dummy, placebo-, vehicle- and active-controlled study was conducted at 40 outpatient centers in Canada and 21 centers in the United States following approval by the appropriate institutional review boards. Eligible subjects, after written informed consent, included men and non-pregnant women aged 40-85 with primary OA of the knee based on (i) standard radiological criteria for OA (Altman, R D, et al., Atlas of individual radiographic features in osteoarthritis. […] J Rheumatol. 1988 December; 15(12):1833-40). All knee films were reviewed by a single radiologist and each compartment was scored (none=1, mild=2, moderate=3, severe=4). Only one knee was treated; where both knees met all entry criteria, the more painful knee (or dominant knee if they scored the same) was selected. Standard exclusion criteria were employed, as described in Roth S H, Shainhouse J Z. Efficacy and safety of a topical diclofenac solution ([…]®) in the treatment of primary osteoarthritis of the knee: a randomized, double-blind, vehicle-controlled clinical trial. Arch Intern Med. 2004; 164:2017-23. Study Design: […] Each study kit contained topical solution and oral tablets for one of the five treatment regimens: […] Topical Diclofenac Solution plus oral diclofenac tablets. […] Concomitant analgesic and anti-inflammatory medications, including over the counter NSAIDs and other analgesics, were prohibited. Continuation of stable treatment with glucosamine, chondroitin, anti-depressants or a proton pump inhibitor (previous 90 days), or low-dose (<325 mg/day) acetylsalicylic acid (previous 30 days) was permitted. Acetaminophen was provided, and permitted (up to four 325-mg caplets per day) except during the 3 days before each efficacy assessment. Other topical products on the knee, including skin emollients, were prohibited. A patient with a gastrointestinal adverse event was allowed to start a proton pump inhibitor. Compliance with the treatment regimen was assessed by weighing the solution bottles and counting study tablets at each clinic visit. […] of randomized placebo controlled clinical trials. J Rheumatol. 2006; 33:1841-4), and patient overall health assessment (“POHA”). The POHA asked the question, “Considering all the ways your osteoarthritic (study) knee and its treatment affect you, including both positive and negative effects, how would you rate your overall state of health in the past 48 hours?” Secondary efficacy variables were WOMAC stiffness and patient global assessment (“PGA”) of knee osteoarthritis. The PGA asked the question, “How has the osteoarthritis in your study joint been over the last 48 hours?” The POHA and PGA were scored on a 5-point Likert scale. There was no assessment of the non-treated knee. […] Adverse events were categorized according to Coding Symbols for Thesaurus of Adverse Reaction Terms (“[…]”). Blood and urine samples were obtained for routine laboratory analysis at baseline, 4 and 12 weeks. Ocular examination (visual acuity test, slit lamp examination and lens assessment) was conducted at the baseline and final visit. All planned analyses were specified a priori. […] Statistical tests were two-sided at the 5% level of significance. All efficacy analyses were by analysis of covariance of the change in score from baseline to landmark final assessment, with baseline score as the covariate. Subjects in both randomization strata were combined for all analyses. Secondary comparisons included topical diclofenac vs. placebo for the secondary variables, and topical diclofenac vs. DMSO vehicle and DMSO vehicle vs. placebo for all variables. A post hoc efficacy analysis compared topical diclofenac vs. oral diclofenac and topical diclofenac+oral diclofenac vs. oral diclofenac. For a missing final score, last observation was carried forward (“LOCF”). Safety analyses were performed on all subjects who received even one dose of either study medication. There was no imputation of missing safety data. […]

[4] = test system: subjects with primary osteoarthritis of the knee; assay: 12-week randomized controlled trial: safety (adverse events, laboratory parameters, ocular examination); assay type: in vivo, human
Experimental: Study Design: Eligible subjects were stratified by the investigator at baseline into stratum 1 (no pain and normal radiological examination in the non-study knee) or stratum 2 (pain and/or abnormal radiological examination in the non-study knee), and then randomized into the trial by receiving the next numbered study kit at that clinic for that stratum. […] Subjects applied 40 drops of solution (approximately 1.2 mL) around the entire circumference of the study knee, without massage, 4 times daily, and took one study tablet daily for up to 12 weeks.
Each subject completed a full efficacy assessment questionnaire after randomization at baseline and at 4, 8 and 12 weeks, or at drop out. […] The POHA asked the question, “Considering all the ways your osteoarthritic (study) knee and its treatment affect you, including both positive and negative effects, how would you rate your overall state of health in the past 48 hours?” Secondary efficacy variables were WOMAC stiffness and patient global assessment (“PGA”) of knee osteoarthritis. The PGA asked the question, “How has the osteoarthritis in your study joint been over the last 48 hours?” The POHA and PGA were scored on a 5-point Likert scale. There was no assessment of the non-treated knee. […] Adverse events were categorized according to Coding Symbols for Thesaurus of Adverse Reaction Terms (“COSTART”). Blood and urine samples were obtained for routine laboratory analysis at baseline, 4 and 12 weeks. Ocular examination (visual acuity test, slit lamp examination and lens assessment) was conducted at the baseline and final visit.
For a missing final score, last observation was carried forward (“LOCF”). Safety analyses were performed on all subjects who received even one dose of either study medication. There was no imputation of missing safety data.

[5] = cited from earlier work
[6] = mean (SD), maximum score 4, mITT
[7] = clinical trials, combination compared to oral diclofenac alone
[8] = normal at baseline to above upper limit of normal
[9] = 50 mg of oral diclofenac TID, label of Voltaren Gel

## C[S+](C)[O-] [DMSO, Dimethyl sulfoxide]
[1]
  ophthalmoscopic abnormalities: no test article-related ophthalmoscopic abnormalities of any kind
  risk for development of lens opacities or refractive index changes: no increased risk for development of lens opacities or refractive index changes
[2]
  ophthalmoscopic abnormalities: No test article-related ophthalmoscopic abnormalities

## O=C(O)Cc1ccccc1Nc1c(Cl)cccc1Cl [ODiclo, diclofenac]
[3]; [6]
  PGA (patient global assessment of the study knee), change in score: −1.42 (1.29)
  POHA (patient overall health assessment), change in score: −0.88 (1.31)
[3]; mean (SD), maximum score 8, mITT
  WOMAC Stiffness, change in score: −2.07 (2.02)
[3]; mean (SD), maximum score 20, mITT
  WOMAC Pain, change in score (final score minus baseline score): −6.4 (4.1)
[3]; mean (SD), maximum score 68, mITT
  WOMAC Physical Function, change in score: −17.5 (14.3)
[3]; oral diclofenac group
  improvement in variable score: 40-48%
[4]; 12 weeks
  Abdominal pain: 11 (7.3) number (%) of subjects
  Abnormal taste sensation or odor: 0 (0.0) number (%) of subjects
  Any adverse event: 94 (62.3) number (%) of subjects
  Any digestive system event: 36 (23.8) number (%) of subjects
  Any skin/appendages event: 11 (7.3) number (%) of subjects
  Contact dermatitis (application site): 1 (0.7) number (%) of subjects
  Contact dermatitis with vesicles (application site): 1 (0.7) number (%) of subjects
  Diarrhea: 7 (4.6) number (%) of subjects
  Dry skin (application site): 4 (2.6) number (%) of subjects
  Dyspepsia: 6 (4.0) number (%) of subjects
  Nausea: 3 (2.0) number (%) of subjects
  Pruritis (application site): 0 (0.0) number (%) of subjects
  Rash: 0 (0.0) number (%) of subjects
  Rectal hemorrhage: 0 (0.0) number (%) of subjects
  incidence of hypertension: 1.3%
  increase in any liver enzyme to three times the upper limit of normal: 2 subjects
[4]; 12 weeks, other system event
  Abnormal vision: 4 (2.6) number (%) of subjects
  Accidental injury: 4 (2.6) number (%) of subjects
  Arthralgia: 12 (7.9) number (%) of subjects
  Back pain: 11 (7.3) number (%) of subjects
  Conjunctivitis: 3 (2.0) number (%) of subjects
  Headache: 26 (17.2) number (%) of subjects
  Pain: 8 (5.3) number (%) of subjects
  Respiratory disorder: 8 (5.3) number (%) of subjects
[4]; baseline to final, mean (SD)
  ALT, mean change: 7.2 (25.3) U/L
  AST, mean change: 2.5 (10.9) U/L
  Creatinine, mean change: 3.1 (11.0) μmol/L
  Hemoglobin, mean change: −3.8 (7.1) g/L
[4]; [7]
  abnormal creatinine: 7%
  abnormal hemoglobin: 9%
  abnormal urea: 12%
[4]; clinical trials, combination of topical and oral diclofenac compared to oral diclofenac alone
  rate of rectal hemorrhage: less than 1%
[4]; [8]
  ALT, normal to abnormal: 26 (18.8) N (%)
  Creatinine, normal to abnormal: 10 (7.2) N (%)
[4]; normal at baseline to below lower limit of normal
  Hemoglobin, normal to abnormal: 8 (5.8) N (%)
[4]; number of events per arm, 12 weeks
  serious adverse events: 1
[5]; [9]
  mean AUC0-24: 3890 ng·h/mL
  mean Cmax: 2270 ng/mL
[5]; oral
  predicted level of diclofenac reported with oral diclofenac: 1500 ng/mL
